Laboratory results published in patent US10376506B2, “Use of an opioid receptor antagonist with kappa-activity and vortioxetine for treatment of depressive disorder with melancholic features” (H. Lundbeck A/S, priority 2013, dated 2019).
Counter-ions that a name gives are not always drawn.

Key:
[1] = test system: Male Wistar rats; test: Sucrose preference test (chronic mild stress model, CMS); format: in vivo, rat; conditions: for effect on sucrose intakes in control animals, compared to vehicle: control rats; for effect on sucrose intakes in control animals, compared to vehicle / effect on sucrose consumption in stressed animals, compared to vehicle: daily IP for five weeks, imipramine 10 mg/kg, vortioxetine 10 mg/kg, nalmefene 1 mg/kg, 1% sucrose solution; for effect on sucrose consumption in stressed animals, compared to vehicle: rats exposed to chronic mild stress; for weeks of treatment after which increase in sucrose intakes reached statistical significance versus Week 0 / overall effect in the CMS model (conclusion): stressed animals; for weeks of treatment after which increase in sucrose intakes reached statistical significance versus Week 0: daily IP; for overall effect in the CMS model (conclusion): five weeks of treatment
Description: Rodents inherently have an interest in sweet foods or liquids. Exposure to stressfull conditions reduces the interest for sweet foods or solutions, indicating a reduced sensitivity to rewards. This can be assessed for example in a sucrose preference test, where the stress-induced reduction of intake of a sucrose solution is used as a measure of anhedonia (reduces sensitivity to rewards). This stress-induced reduction of sucrose intake in the rat is a well-established animal model of anhedonia (Nielsen, Arnt and Sánchez. Intracranial self-stimulation and sucrose intake differ as hedonic measures following chronic mild stress: interstrain and interindividual differences. Behav. Brain. Res. (2000), 107 (1-2): 21-33).
Male Wistar rats (Charles River, Germany) were brought into the laboratory one month before the start of the experiment. Except as described below, the animals were singly housed with food and water freely available, and were maintained on a 12-h light/dark cycle (lights on at 08.00) and in a constant temperature (22±2° C.) and humidity (50±5%) conditions. All procedures used in this study are conformed to the rules and principles of the 86/609/EEC Directive, and were approved by the Local Bioethical Committee at the Institute of Pharmacology, Polish Academy of Sciences, Krakow, Poland.
After a period of 3 weeks of adaptation to laboratory and housing conditions, the animals were trained to consume a 1% sucrose solution; training consisted of nine 1 h baseline tests in which sucrose was presented, in the home cage, following 14 h food and water deprivation. The sucrose intake was measured by weighing pre-weighed bottles containing the sucrose solution, at the end of the test. Subsequently, sucrose consumption was monitored, under similar conditions, at weekly intervals throughout the whole experiment.
On the basis of their sucrose intakes in the final baseline test, the animals were divided into two matched groups. One group of animals was subjected to the chronic mild stress procedure for a period of 8 consecutive weeks. Each week of stress regime consisted of: two periods of food or water deprivation, two periods of 45 degree cage tilt, two periods of intermittent illumination (lights on and off every 2 h), two periods of soiled cage (250 ml water in sawdust bedding), one period of paired housing, two periods of low intensity stroboscopic illumination (150 flashes/min), and three periods of no stress. All stressors were 10-14 h of duration and were applied individually and continuously, day and night. […] They were deprived of food and water for 14 h preceding each sucrose test, but otherwise food and water were freely available in the home cage.
(§1) On the basis of their sucrose intakes following 2 weeks of initial stress, both stressed and control groups were each divided further into matched subgroups (n=8), and for subsequent five weeks they received daily IP administration of vehicle (0.9% saline, 1 ml/kg), Vortioxetine (10 mg/kg), Nalmefene (1 mg/kg), joint injections of Vortioxetine (10 mg/kg) and Nalmefene (1 mg/kg) or imipramine HCl (10 mg/kg) as the reference treatment. The volume of all injections was 1 ml/kg. The drugs were administered at approx. 10.00 and the weekly sucrose tests were carried out 24 h following the last drug injections. After five weeks all treatments were terminated and one additional sucrose test was carried out following one week of withdrawal. Stress was continued throughout the entire period of treatment and withdrawal.
The Fisher's LSD test was used for post-hoc comparisons of means.

[2] = Body weights in the CMS study
Method: as §1

[3] = target: κ-opioid receptors (Homo sapiens, UniProt P41145); conditions: in vitro studies; cited from earlier work
κ-opioid receptors, sequence (P41145 whole entry): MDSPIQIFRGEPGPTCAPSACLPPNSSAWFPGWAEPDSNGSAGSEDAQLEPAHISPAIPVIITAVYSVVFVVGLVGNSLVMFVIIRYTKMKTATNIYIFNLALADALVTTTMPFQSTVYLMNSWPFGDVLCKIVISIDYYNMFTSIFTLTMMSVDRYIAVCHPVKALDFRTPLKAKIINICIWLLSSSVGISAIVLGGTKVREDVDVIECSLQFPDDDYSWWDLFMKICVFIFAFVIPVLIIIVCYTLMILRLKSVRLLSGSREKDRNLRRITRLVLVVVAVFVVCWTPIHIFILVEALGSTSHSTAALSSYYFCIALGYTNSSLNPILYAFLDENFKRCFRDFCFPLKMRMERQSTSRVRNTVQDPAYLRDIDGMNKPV

[4] = target: μ-opioid receptors (Homo sapiens, UniProt P35372); conditions: in vitro studies; cited from earlier work
μ-opioid receptors, sequence (P35372 whole entry): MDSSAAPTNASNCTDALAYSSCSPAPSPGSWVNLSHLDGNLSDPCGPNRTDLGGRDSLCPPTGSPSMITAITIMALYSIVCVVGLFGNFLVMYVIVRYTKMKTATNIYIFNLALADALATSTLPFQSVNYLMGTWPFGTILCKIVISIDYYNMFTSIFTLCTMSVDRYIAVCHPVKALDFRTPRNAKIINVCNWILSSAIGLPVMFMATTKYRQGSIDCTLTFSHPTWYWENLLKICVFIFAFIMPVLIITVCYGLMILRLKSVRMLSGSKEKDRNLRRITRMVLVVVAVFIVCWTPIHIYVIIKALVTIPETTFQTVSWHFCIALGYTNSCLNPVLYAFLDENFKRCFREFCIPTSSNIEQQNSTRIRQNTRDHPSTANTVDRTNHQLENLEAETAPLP

[5] = target: δ-opioid receptors (Homo sapiens, UniProt P41143); conditions: in vitro studies; cited from earlier work
δ-opioid receptors, sequence (P41143 whole entry): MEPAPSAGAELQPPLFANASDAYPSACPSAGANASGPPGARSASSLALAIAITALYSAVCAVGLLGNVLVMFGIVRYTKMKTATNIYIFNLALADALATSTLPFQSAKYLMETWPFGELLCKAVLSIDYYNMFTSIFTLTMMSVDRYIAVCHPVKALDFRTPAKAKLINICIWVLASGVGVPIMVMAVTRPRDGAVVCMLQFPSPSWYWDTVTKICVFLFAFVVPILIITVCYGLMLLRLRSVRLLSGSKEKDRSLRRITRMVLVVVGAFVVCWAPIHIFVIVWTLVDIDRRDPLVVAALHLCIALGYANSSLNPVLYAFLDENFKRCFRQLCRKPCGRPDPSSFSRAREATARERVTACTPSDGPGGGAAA

SMILES	effect on sucrose intakes in control animals, compared to vehicle [1]	effect on sucrose consumption in stressed animals, compared to vehicle [1]	weeks of treatment after which increase in sucrose intakes reached statistical significance versus Week 0 [1]	overall effect in the CMS model (conclusion) [1]	Body weights after five weeks of treatment (means ± SEM), Controls ([2]; control rats, daily IP)	effect on body weight compared to vehicle-treated group ([2]; rat, in vivo)	Body weights after five weeks of treatment (means ± SEM), Stressed ([2]; stressed rats, daily IP)	effect on body weight compared to vehicle-treated group ([2]; control and stressed animals, decreases p<0.05 in controls, NS in stressed)	functional activity at the κ receptor [3]	functional activity at the μ receptor [4]	functional activity at the δ receptor [5]	Body weights after five weeks of treatment (means ± SEM), Controls ([2]; rat, in vivo, ip)	Body weights after five weeks of treatment (means ± SEM), Stressed ([2]; rat, in vivo, ip)
CN(C)CCCN1c2ccccc2CCc2ccccc21 [Imipramine, imipramine HCl]	no significant effect	gradually increased	three	fully reversed	350 ± 7 g	decreased	326 ± 7 g	–	–	–	–	–	–
C=C1CC[C@@]2(O)[C@H]3Cc4ccc(O)c5c4[C@@]2(CCN3CC2CC2)[C@H]1O5 [Nalmefene, 17-(cyclopropylmethyl)-4,5-alpha-epoxy-6-methylenemorphinan-3,14-diol]	no effect	gradually increased	four	effective	371 ± 9 g	–	355 ± 11 g	did not affect	partial agonist activity	antagonist activity	antagonist activity	–	–
Cc1ccc(Sc2ccccc2N2CCNCC2)c(C)c1 [Vortioxetine, 1-[2-(2,4-dimethyl-phenylsulfanyl)-phenyl]-piperazine]	no significant effect	no significant effect	–	not effective	–	decreased	–	–	–	–	–	348 ± 9 g	328 ± 9 g
